SMILES strings stand for the structures.

From ChEMBL document CHEMBL3507680, “University of Dundee, Gates Library screen for HepG2 cell viability” come the findings set out here.

This data set is described as follows: Human HepG2 cell viability assay in 384 well format. Set-up: dose 125 nL, time 70.5 hour; cytotoxicity at 70.5 h: concentration not given beside the values. It is filed as toxicity, cell-based. Conditions: HepG2 cells, read-out: Inhibition.
Take `COc1ccc(CNC(=O)Nc2cccnc2N2CCCC2)cc1O`: the cytotoxicity at 70.5 h is -8.02%.

`CC(C)N1CCCC1c1cc(CO)[nH]n1` (stereo not given): the cytotoxicity at 70.5 h is -4.38%.

For the molecule `O=C(c1ccc2cccc(F)c2n1)N1CCN(CCn2cccc2)CC1`, the cytotoxicity at 70.5 h came out at 9.26%.

As to `CN1CCCN(c2nccc(-c3cncnc3C3CCCCC3)n2)CC1`, the cytotoxicity at 70.5 h was 20.6%.

Consider `Cc1cnc(N2CCOC3(CCCN(C(=O)C(C)C)C3)C2)nc1` (stereo not given), for which the cytotoxicity at 70.5 h was -3.83%.

As for `Cc1nc(CN(Cc2ccncc2)C2CCN(C)CC2)cs1`, the cytotoxicity at 70.5 h came out at 8.24%.

For the molecule `Cc1nc(C2CCN(S(=O)(=O)c3ccc4c(c3)CCC4)CC2)n[nH]1`, the cytotoxicity at 70.5 h is -2.6%.

For `Cc1ncc(CNCC(=O)NC2CCCCC2)n1-c1ccccc1`, the cytotoxicity at 70.5 h was 9.11%.

As to `O=C(NCCOc1ccc(Cl)cc1)N1CCS(=O)(=O)CC1`, the cytotoxicity at 70.5 h was 9.92%.

For the molecule `Cc1cccc(-n2cc(C(=O)N3CCn4c(C)nnc4C3)nn2)c1`, the cytotoxicity at 70.5 h is 9.22%.

As for `O=C(c1ccc2nncn2c1)N1CCCCC1Cn1cccn1` (stereo not given), the cytotoxicity at 70.5 h was 8.64%.

In the case of `CN1CCn2c(-c3ccccc3)cnc2C12CCN(CC1CC1)CC2`, the cytotoxicity at 70.5 h was -3.45%.

Regarding `COCc1nn(C)c2c1CN(C(=O)c1ccno1)CC2`, the cytotoxicity at 70.5 h is -9.37%.

For the molecule `COc1nccnc1N1CCC2(CC1)C(=O)N(C)c1ccccc12`, the cytotoxicity at 70.5 h was -2.17%.

Consider `N#Cc1c(F)cccc1N1CCCC(C(=O)Nc2nncs2)C1` (stereo not given), for which the cytotoxicity at 70.5 h was -16.9%.

With `CC(=O)N1CCN2C[C@H](CO)[C@@H](c3ccccc3)[C@H]2C1`, the cytotoxicity at 70.5 h was -6.55%.

As for `O=C(C[S+]([O-])Cc1csc(C2CCCC2)n1)NC1CCCC1` (stereo not given), the cytotoxicity at 70.5 h is -1.25%.

`CNC(=O)C(C)CN(C)C(=O)Nc1ccc(F)c(-n2cccc2)c1` (stereo not given): the cytotoxicity at 70.5 h amounted to 0.178%.

Regarding `O=C(O)C1(Cc2cc(-c3ccc(F)cc3F)no2)CCOCC1`, the cytotoxicity at 70.5 h was 20.5%.

As for `CSc1ccc(CNc2ccccc2CN2CCC(O)CC2)cc1`, the cytotoxicity at 70.5 h is -3.71%.

On to `O=C(O)c1cc(S(=O)(=O)N2CCOc3ccccc32)ccc1F`, for which the cytotoxicity at 70.5 h came to 0.682%.

Regarding `O=C(c1ccc(F)cc1F)N1CC[C@H](O)[C@@H](N2CCOCC2)CC1`, the cytotoxicity at 70.5 h is -13.9%.

With `CC(C)CC(C)N(C)Cc1nnc(-c2ccco2)o1` (stereo not given), the cytotoxicity at 70.5 h was found to be 31.7%.

In the case of `COc1ccc(NC(=O)c2cnc(C3CCN(C)CC3)nc2C)cc1`, the cytotoxicity at 70.5 h was -2.26%.

For the molecule `CCCN1CCN(C(=O)c2cnn(-c3ccccc3F)c2)CC1`, the cytotoxicity at 70.5 h is 8.36%.

For `Cc1cccc(-c2nc(CN3CCCC3Cn3cc(C)cn3)no2)c1` (stereo not given), the cytotoxicity at 70.5 h was determined as 6.59%.

Consider `CN(C)CCN(Cc1ccc(Cl)cc1)C(=O)c1cc[nH]n1`, for which the cytotoxicity at 70.5 h was -3.35%.

Regarding `CC(C)N1CCN(S(=O)(=O)c2ncn(C)c2Cl)CC1`, the cytotoxicity at 70.5 h is -4.74%.

With `c1csc(-c2nc(CN3CCOC(Cn4cccn4)C3)co2)c1` (stereo not given), the cytotoxicity at 70.5 h was -8.17%.

As for `OC1(CNCCN2CCCc3ccccc32)CCNC1` (stereo not given), the cytotoxicity at 70.5 h is -11.6%.

Regarding `O=c1cc(Cn2cncn2)nc2n1CCCN(Cc1ccsc1)C2`, the cytotoxicity at 70.5 h was -11.7%.

Turning to `CNC(=O)C1CCN(C(=O)c2cccn2Cc2cccs2)CC1`, the cytotoxicity at 70.5 h is -8.46%.

Turning to `Cc1ccc(C(=O)N2C[C@@H]3C[C@@H](c4nnc(C5CC5)o4)O[C@@H]3C2)s1`, the cytotoxicity at 70.5 h was -3.56%.

Take `COc1ccc2c(OCC(=O)NCC(F)(F)F)ccnc2c1`: the cytotoxicity at 70.5 h is -15.8%.

`Cc1nc(C)n(C2CCCN(C(=O)Cc3n[nH]c4ccccc34)C2)n1` (stereo not given): the cytotoxicity at 70.5 h stood at 1.52%.

For the molecule `Cc1ncsc1CN1CCn2nc(CCC(=O)N3CCCC3)cc2C1`, the cytotoxicity at 70.5 h was -6.96%.

Consider `CSCc1cccc(S(=O)(=O)N2CCCCCC2)c1`, for which the cytotoxicity at 70.5 h was -4.01%.

Regarding `O=C(Nc1ccccc1OC1CCOC1)c1[nH]nc2c1CCCC2` (stereo not given), the cytotoxicity at 70.5 h is 8.78%.

Take `Cc1cccc(OCCC(=O)NCC2CN(C)CCO2)c1C` (stereo not given): the cytotoxicity at 70.5 h was -5.5%.

`CCn1cc(CN2CCC(c3[nH]ncc3S(C)(=O)=O)C2)cn1` (stereo not given): the cytotoxicity at 70.5 h was 0.805%.

Consider `COCC(=O)N1CCN(C(C)c2ncc(-c3ccccc3)o2)CC1` (stereo not given), for which the cytotoxicity at 70.5 h was -13.2%.

As for `CCn1nnc2c1C(COCCN(C)C)CN(Cc1ccco1)C2` (stereo not given), the cytotoxicity at 70.5 h was 11.5%.

`CC(C)CC1SCC(=O)Nc2c1cnn2-c1ccccc1F` (stereo not given): the cytotoxicity at 70.5 h is -22.8%.

For `CNc1nc(N2CCC3(CCCNC3=O)C2)nc2c1CCC2` (stereo not given), the cytotoxicity at 70.5 h was -6.8%.

For the molecule `O=C(O)CC1COCCN1C(=O)C1(c2ccc(Cl)cc2)CCC1` (stereo not given), the cytotoxicity at 70.5 h was determined as 5.66%.

`CCO[C@H]1C[C@@H](O)C12CCN(S(=O)(=O)c1ccccc1OC)CC2`: the cytotoxicity at 70.5 h was -13.9%.

As for `CC(NC(=O)c1ccoc1)C(=O)N(C)Cc1ccsc1` (stereo not given), the cytotoxicity at 70.5 h was -5.45%.

`CN(Cc1ccc(Cl)s1)C(=O)NCCN1CCCCCC1=O`: the cytotoxicity at 70.5 h was -3.32%.

Regarding `CNc1cc(C2CN(C(=O)c3cnn(C)c3)CCO2)nc(C)n1` (stereo not given), the cytotoxicity at 70.5 h turned out to be 13.9%.

Take `Cc1cccc(COCC2c3nnn(C)c3CCN2Cc2ccoc2)n1` (stereo not given): the cytotoxicity at 70.5 h was -5.52%.

`Cc1cc2c(=O)n3c(nc2s1)CCN(Cc1[nH]cnc1C)CC3`: the cytotoxicity at 70.5 h is -9.2%.

Consider `CC(=O)c1ccc(NC(=O)C(NC(=O)Nc2ccccc2)C(C)C)cc1` (stereo not given), for which the cytotoxicity at 70.5 h was -10.8%.

Take `Cc1nn(C)c(N2CCOCC2)c1CNCc1ccc(CO)c(F)c1`: the cytotoxicity at 70.5 h is -0.89%.

As for `c1cc(CN2CCC(c3ccc4c(c3)OCO4)CC2)ccn1`, the cytotoxicity at 70.5 h is -1.06%.

Turning to `CN(C)c1ccc(CNC(=O)c2ccc(Cl)cc2F)cc1`, the cytotoxicity at 70.5 h was 3.13%.

On to `CCOCC(O)CN1CCN(C(=O)c2ccccc2F)CC1` (stereo not given), for which the cytotoxicity at 70.5 h is -1.86%.

On to `COc1ccc(OCCN2CCOCS2(=O)=O)cc1`, for which the cytotoxicity at 70.5 h was -6.02%.

For `Cn1cc(-c2ncnc3c2CCN(C(=O)c2cnccn2)CC3)cn1`, the cytotoxicity at 70.5 h was 1.04%.

Consider `CCc1nc(C(=O)N2CCN(C)CC2)nn1-c1ccccc1Cl`, for which the cytotoxicity at 70.5 h is 16.1%.

`CCC(CO)NC(=O)Nc1cc(F)ccc1Br` (stereo not given): the cytotoxicity at 70.5 h is -9.27%.

As to `COCCN(CCOC)C(=O)c1cn(C(C)(C)C)c2ncccc12`, the cytotoxicity at 70.5 h came to 3.1%.

Turning to `Cc1nn(C)cc1CN1C[C@@H]2CC[C@H](C1)N(Cc1c(C)noc1C)C2=O`, the cytotoxicity at 70.5 h was determined as 32.1%.

As to `Cc1ccc(CN(C)C(=O)CCNS(=O)(=O)c2cccnc2)cc1`, the cytotoxicity at 70.5 h is -7.21%.

For the molecule `CC(C)n1cnnc1CN(C)C(=O)C1CCCN(C2CCN(C)CC2)C1` (stereo not given), the cytotoxicity at 70.5 h is -3.47%.

Consider `O=C1CCN(C(=O)c2csc(-c3ccc(C(F)(F)F)cc3)n2)CCN1`, for which the cytotoxicity at 70.5 h was -8.28%.

In the case of `CC(C)c1nccn1C1CCCN(C(=O)c2ccc3c(c2)OCO3)C1` (stereo not given), the cytotoxicity at 70.5 h is -12.1%.

Turning to `CCc1ccc(S(=O)(=O)Nc2cn(C)cc(Br)c2=O)cc1`, the cytotoxicity at 70.5 h was determined as 7.59%.

With `CC(C)C(=O)N1Cc2ccccc2CC2(CCCCN2C)C1` (stereo not given), the cytotoxicity at 70.5 h was -10.2%.

`Cc1cccnc1NCCNC(=O)c1cnc(-c2cccs2)nc1O`: the cytotoxicity at 70.5 h was -0.575%.

`COCCN(C)C(=O)Nc1ccc(C(=O)NCCC(=O)OC)cc1`: the cytotoxicity at 70.5 h was -8.51%.

On to `O=C(NCCc1cc(N2CCOCC2)nc(NC2CC2)n1)C1CC1`, for which the cytotoxicity at 70.5 h is -14%.

For `OC(CN1CCN(CC2CCCCC2)CC1)c1ccccc1` (stereo not given), the cytotoxicity at 70.5 h was -8.48%.

For `O=C(c1ccc(C2CCNC2)cc1)N1CCC(N2CCC(O)CC2)CC1` (stereo not given), the cytotoxicity at 70.5 h was found to be 3.75%.

As for `Cc1ccnc(N2CCC(=O)N(Cc3ccc(F)cc3)C(C(C)C)C2)n1` (stereo not given), the cytotoxicity at 70.5 h was -9.2%.

`Cc1cc(NC(=O)CCNC(C)(C)c2nc(C)c(C)s2)no1`: the cytotoxicity at 70.5 h was -5.95%.

As for `CCc1nc(-c2ccc(NC(=O)N3CCC4(CC3)OCCO4)cc2)no1`, the cytotoxicity at 70.5 h is 3.68%.

With `Cc1ccc(-c2cccc(CC3(C(=O)O)CCOCC3)c2)c(C)c1`, the cytotoxicity at 70.5 h was -5.38%.

For `O=C(CCC(=O)N1CCC(OCc2cccnc2)CC1)c1ccccc1`, the cytotoxicity at 70.5 h is -1.13%.

For `CCCS(=O)(=O)N1CCC2(CC(C(=O)NCc3cccnc3)=NO2)C1` (stereo not given), the cytotoxicity at 70.5 h is -10.3%.

For the molecule `CC(C)c1nccc(CN(C)Cc2cccc(-n3cccn3)c2)n1`, the cytotoxicity at 70.5 h is -1.47%.

`CN(Cc1noc(C2CC2)n1)CC1CCN(CCO)CC1`: the cytotoxicity at 70.5 h stood at 14.4%.

For the molecule `O=C(CCc1ccccc1)NCC1CCN(Cc2cccs2)CC1`, the cytotoxicity at 70.5 h was -8.06%.

As to `Cc1cc(C)n(C2CCCN(C(=O)Cc3cccc(F)c3)C2)n1` (stereo not given), the cytotoxicity at 70.5 h was -9.48%.

As for `Cn1ccc(C(=O)N(CC(F)(F)F)c2cccc(Cl)c2)cc1=O`, the cytotoxicity at 70.5 h worked out at 11.6%.

In the case of `Cc1nc(C2CCCN(C(=O)c3cnn(C4CCCCC4)c3)C2)no1` (stereo not given), the cytotoxicity at 70.5 h was -1.22%.

In the case of `Cc1ncc(C)c(N2CCC(Cc3ccc(Cl)cc3)(C(=O)O)CC2)n1`, the cytotoxicity at 70.5 h was -9.85%.

Consider `COCCN(CCOC)C(=O)c1ccn(-c2ccc3ccccn23)n1`, for which the cytotoxicity at 70.5 h is 11.4%.

As to `Cc1nc(C2(NCc3ccc(C#N)cc3F)CCCCC2)no1`, the cytotoxicity at 70.5 h is -1.37%.

As for `C=C(C)CN1CCN(Cc2cnc(OC)nc2)CC1`, the cytotoxicity at 70.5 h is 6.5%.

With `CC(=O)N1CCCC1c1cccc(NCc2ccccc2F)n1` (stereo not given), the cytotoxicity at 70.5 h is -1.09%.

Take `O=C(c1ccco1)N1CCC2(CC1)C(=O)Nc1ccccc12`: the cytotoxicity at 70.5 h was -9.22%.

For the molecule `Cn1c2c(ccc1=O)CC(NS(C)(=O)=O)CC2` (stereo not given), the cytotoxicity at 70.5 h came out at 27.8%.

With `CC1CN(c2ccc(CNC(=O)NCc3ccoc3)cn2)CCO1` (stereo not given), the cytotoxicity at 70.5 h was -5.8%.

Regarding `CC1CCCCN1C(=O)c1ccc(=O)[nH]n1` (stereo not given), the cytotoxicity at 70.5 h is -5.98%.

Take `COCC1COCCC12CCN(C(=O)CC1=CCCCC1)CC2` (stereo not given): the cytotoxicity at 70.5 h was -2.79%.

Take `COCCc1ncc(-c2c(C#N)c(N)nc3c2CCc2[nH]ccc2-3)cn1`: the cytotoxicity at 70.5 h was -3.18%.

On to `Cc1cn(CC(=O)Nc2cc(C(C)C)nn2C)cn1`, for which the cytotoxicity at 70.5 h was -10.1%.

In the case of `O=C(Nc1ccc(-c2nnc[nH]2)cc1)C1CCN1Cc1ccccc1` (stereo not given), the cytotoxicity at 70.5 h stood at 14.7%.

With `c1cc2cc[nH]c2c(CC2CN(Cc3cncs3)C2)n1`, the cytotoxicity at 70.5 h stood at 7.7%.

For the molecule `Cc1noc(C)c1CN1CCn2cc(CNC(=O)C3CCC3)nc2C1`, the cytotoxicity at 70.5 h was -12.7%.
